Key:
[1] = HILIC, Merck SeQuant ZIC-pHILIC, 150 × 2.1 mm, 5 µm, 40 °C, 0.3 mL/min, estimated dead time 1.1 min; A: acetonitrile; B: water + 2.8 mM ammonium formate, pH 9; gradient (min/%B) 0/5 1/5 10/51 13/51 13.1/5 20/5; conditions: stereoisomer not certain
[2] = HILIC, Waters ACQUITY UPLC BEH Amide, 150 × 2.1 mm, 1.7 µm, 40 °C, 0.5 mL/min, estimated dead time 0.66 min; A: 5% water + 95% acetonitrile; B: 70% water + 30% acetonitrile + 10 mM ammonium formate, pH 6.5; gradient (min/%B) 0/0 2/0 20/70 23/70 24/0 31/0; conditions: stereoisomer not certain

Row | Compound | LC retention time [1] [min] | LC retention time [2] [min]
1 | CC(C)=CC(=O)SCCNC(=O)CCNC(=O)C(O)C(C)(C)COP(=O)(O)OP(=O)(O)OCC1OC(n2cnc3c(N)ncnc32)C(O)C1OP(=O)(O)O (stereo not drawn) [3-METHYLCROTONYL-COA] | 7.95 | –
2 | CC(C)(COP(=O)(O)OP(=O)(O)OCC1OC(n2cnc3c(N)ncnc32)C(O)C1OP(=O)(O)O)C(O)C(=O)NCCC(=O)NCCS (stereo not drawn) [COENZYME A] | 9.12 | –
3 | O=C(O)C(O)C(O)C(O)C(O)CO (stereo not drawn) [GLUCONATE] | 8.5 | –
4 | O=C(CO)C(O)C(O)C(O)COP(=O)(O)O (stereo not drawn) [FRUCTOSE 6-PHOSPHATE] | 9.3 | –
5 | Nc1ccnc(=O)[nH]1 [CYTOSINE] | – | 5.15
6 | NCCCC(=O)O [GAMMA-AMINOBUTYRATE] | – | 10.2
7 | O=C1CCCCO1 [5-VALEROLACTONE] | – | 1.14
8 | NC(CS)C(=O)NCC(=O)O (stereo not drawn) [CYS-GLY] | 8.8 | –
9 | CC(O)(CC(=O)O)CC(=O)SCCNC(=O)CCNC(=O)C(O)C(C)(C)COP(=O)(O)OP(=O)(O)OCC1OC(n2cnc3c(N)ncnc32)C(O)C1OP(=O)(O)O (stereo not drawn) [3-HYDROXY-3-METHYLGLUTARYL-COA] | 9.96 | –
10 | O=P(O)(O)OC(CO)CO [BETA-GLYCEROPHOSPHATE] | 8.57 | –
11 | NCCCNCCCN [NORSPERMIDINE] | – | 8.25
12 | NCCOP(=O)(O)OP(=O)(O)OCC1OC(n2ccc(N)nc2=O)C(O)C1O (stereo not drawn) [CDP-ETHANOLAMINE] | 9.33 | –
13 | NC(CS)C(=O)O (stereo not drawn) [CYSTEINE] | 10.2 | –
14 | Nc1ccn(C2OC(COP(=O)(O)OP(=O)(O)O)C(O)C2O)c(=O)n1 (stereo not drawn) [CYTIDINE DIPHOSPHATE] | 10.2 | –
15 | O=CC(O)COP(=O)(O)O (stereo not drawn) [GLYCERALDEHYDE 3-PHOSPHATE] | 6.24 | –
16 | NC(CSSCC(N)C(=O)O)C(=O)O (stereo not drawn) [CYSTINE] | 10.3 | –
17 | Nc1nc2c(ncn2C2OC(COP(=O)(O)OP(=O)(O)OC3OC(CO)C(O)C(O)C3O)C(O)C2O)c(=O)[nH]1 (stereo not drawn) [GUANOSINE DIPHOSPHATE MANNOSE] | 10.2 | –
18 | Nc1ncnc2c1ncn2C1CC(O)C(COP(=O)(O)OP(=O)(O)OP(=O)(O)O)O1 (stereo not drawn) [DEOXYADENOSINE TRIPHOSPHATE] | 10.2 | –
19 | NC1C(O)OC(COP(=O)(O)O)C(O)C1O (stereo not drawn) [GLUCOSAMINE 6-PHOSPHATE] | 10.2 | –
20 | Nc1ncnc2c1ncn2C1OC(COP(=O)(O)OP(=O)(O)O)C(O)C1O (stereo not drawn) [ADENOSINE 5'-DIPHOSPHATE] | 9.46 | –
21 | Nc1ccn(C2CC(O)C(COP(=O)([O-])OP(=O)([O-])[O-])O2)c(=O)n1 (stereo not drawn) [DEOXYCYTIDINE-DIPHOSPHATE] | 9.8 | –
22 | O=C1OC(C(O)CO)C(O)=C1O (stereo not drawn) [ASCORBATE] | 8.49 | –
23 | Nc1nc2c(ncn2C2CC(O)C(COP(=O)(O)OP(=O)(O)OP(=O)(O)O)O2)c(=O)[nH]1 (stereo not drawn) [DGTP] | 11.1 | –

Now from value to molecule:

Row | LC retention time [1] [min] | LC retention time [2] [min] | Compound
24 | 10.5 | – | O=C(O)CC(C(=O)O)C(O)C(=O)O (stereo not drawn) [ISOCITRATE]
25 | 11 | – | O=C(O)C1OC(OP(=O)(O)OP(=O)(O)OCC2OC(n3ccc(=O)[nH]c3=O)C(O)C2O)C(O)C(O)C1O (stereo not drawn) [URIDINE DIPHOSPHATE GLUCURONIC ACID]
26 | 8.1 | – | O=C(O)C1(O)CC(O)C(O)C(O)C1 (stereo not drawn) [QUINATE]
27 | – | 5.9 | CCCCCCCCCCCCCCCC(=O)OC(CC(=O)[O-])C[N+](C)(C)C (stereo not drawn) [PALMITOYLCARNITINE]
28 | 10.5 | – | Nc1nc2c(ncn2C2OC(COP(=O)(O)OP(=O)(O)O)C(O)C2O)c(=O)[nH]1 (stereo not drawn) [GUANOSINE DIPHOSPHATE]
29 | 9.91 | – | NC(CCS)C(=O)O (stereo not drawn) [HOMOCYSTEINE]
30 | – | 8.45 | CC(=O)NCCCCN [N-ACETYLPUTRESCINE]
31 | 9.98 | – | O=c1[nH]cnc2c1ncn2C1OC(COP(=O)([O-])OP(=O)([O-])O)C(O)C1O (stereo not drawn) [INOSINE 5'-DIPHOSPHATE]
32 | – | 0.83 | C[N+](C)(C)CCCCC(N)C(=O)O (stereo not drawn) [N,N,N-TRIMETHYLLYSINE]
33 | 1.54 | – | CC(O)C(=O)O (stereo not drawn) [LACTATE]
34 | – | 2.9 | CN1CCCC1c1cccnc1 (stereo not drawn) [NICOTINE]
35 | – | 1.86 | CC(C)CC(=O)C(=O)O [KETOLEUCINE]
36 | 6.41 | – | O=C([O-])c1ccccn1 [PICOLINATE]
37 | 10.1 | – | NC(=O)C1=CN(C2OC(COP(=O)(O)OP(=O)(O)OCC3OC(n4cnc5c(N)ncnc54)C(OP(=O)(O)O)C3O)C(O)C2O)C=CC1 (stereo not drawn) [NADPH]
38 | 8.87 | – | O=C(O)CCCC(=O)C(=O)O [OXOADIPATE]
39 | 11.5 | – | Nc1nc2c(ncn2C2OC(COP(=O)(O)OP(=O)(O)OP(=O)(O)O)C(O)C2O)c(=O)[nH]1 (stereo not drawn) [GUANOSINE TRIPHOSPHATE]
40 | 9.92 | – | NC(CCSSCCC(N)C(=O)O)C(=O)O (stereo not drawn) [HOMOCYSTINE]
41 | 10.5 | – | O=C(O)C=C(CC(=O)O)C(=O)O [TRANS-ACONITATE]
42 | 9.21 | – | O=C(O)CCC(=O)C(=O)O [OXOGLUTARATE]
43 | 9.56 | – | OCC1OC(OCC2OC(OC3(CO)OC(CO)C(O)C3O)C(O)C(O)C2O)C(O)C(O)C1O (stereo not drawn) [RAFFINOSE]
